Laboratory results as given in US5691373A, “Nonpeptide endothelin antagonists I” (Warner-Lambert Company, priority 1995, dated 1997).
Like-named read-outs stand apart in the source and are kept apart here.

Tests used:
ETA = molecular target: T1, ETA (Oryctolagus cuniculus, UniProt A5A8K3)
T1 sequence (A5A8K3 21-427): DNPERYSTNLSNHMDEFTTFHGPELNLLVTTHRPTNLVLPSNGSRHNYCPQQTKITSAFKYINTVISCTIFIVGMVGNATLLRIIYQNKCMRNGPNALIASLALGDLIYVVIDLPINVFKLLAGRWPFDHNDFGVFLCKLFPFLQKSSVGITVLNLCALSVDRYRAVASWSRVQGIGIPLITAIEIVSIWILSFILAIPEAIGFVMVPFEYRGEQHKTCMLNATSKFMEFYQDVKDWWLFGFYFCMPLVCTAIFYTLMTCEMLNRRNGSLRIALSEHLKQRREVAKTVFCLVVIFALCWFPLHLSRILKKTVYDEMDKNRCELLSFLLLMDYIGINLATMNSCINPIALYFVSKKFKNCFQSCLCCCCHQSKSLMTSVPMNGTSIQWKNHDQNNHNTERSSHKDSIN

human ETB receptor = molecular target: T2, human ETB receptor (Homo sapiens, UniProt P24530); test: ERBA-B: [125I]-ET-1 binding, recombinant human ETB receptor expressed in CHO-K1 cells; conditions: human cloned ETB receptor, read-out: ERBA-B IC50, human cloned receptor data
T2 construct: expressed in transfected cells; host or cells: CHO-K1 cells, pRc-CMW (so in the source) expression vector, electroporation; membranes used
T2 sequence (P24530 27-442): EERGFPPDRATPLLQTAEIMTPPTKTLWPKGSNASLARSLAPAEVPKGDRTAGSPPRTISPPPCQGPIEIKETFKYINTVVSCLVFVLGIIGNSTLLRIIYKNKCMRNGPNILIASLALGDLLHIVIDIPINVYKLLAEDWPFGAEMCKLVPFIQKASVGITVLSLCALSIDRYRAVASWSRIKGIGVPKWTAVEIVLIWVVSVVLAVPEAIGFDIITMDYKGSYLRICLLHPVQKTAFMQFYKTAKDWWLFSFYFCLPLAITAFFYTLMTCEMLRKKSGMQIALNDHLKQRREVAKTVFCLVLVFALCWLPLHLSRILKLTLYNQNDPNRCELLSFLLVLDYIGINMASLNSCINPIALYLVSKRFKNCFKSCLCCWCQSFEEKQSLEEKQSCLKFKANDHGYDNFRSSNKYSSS
Procedure: Count filters for radioactivity in gamma counter.
The above process has also been modified by using human recombinant CHO-K1 cells.
The tissue used for human ETB was recombinant human ETB receptor expressed in CHO-K1 cells (chinese hamster ovary cells). The gene for human ETB receptor was cloned and inserted into the pRc-CMW expression vector, then transfected into CHO-K1 cells by electroporation. For binding assays, membranes (0.7 mg protein) of CHO-K1 cells expressing recombinant human ETB receptor were used.
^d Human cloned receptor data

[1] = ERBA-A IC50, [125I]-ET-1, rabbit renal artery vascular smooth muscle cells
[2] = read-out: ERBA-A IC50, [125I]-ET-1, rabbit renal artery vascular smooth muscle cells

Row | IC50 (ETA; [1]) | IC50 (human ETB receptor) | IC50 (ETA; [2]) | SMILES
1 | 72 nM | 2300 nM |  | COc1ccc(C2(O)OC(=O)C(c3cc(OC)cc(OC)c3)=C2Cc2cccc(F)c2)cc1 (stereo not drawn) [Example 129, 3-(3,5-Dimethoxphenyl)-4-(3-fluorobenzyl)-5-hydroxy-5-(4-methoxyphenyl)-5H-furan-2-one]
2 | 70 nM | 2750 nM |  | COc1ccc(C2(O)OC(=O)C(c3cc(OC)cc(OC)c3)=C2Cc2cc(Cl)cc(Cl)c2)cc1 (stereo not drawn) [Example 132, 4-(3,5-Dichlorobenzyl)-3-(3,5-dimethoxyphenyl)-5-hydroxy-5-(4-methoxyphenyl)-5H-furan-2-one]
3 | 40 nM | 3200 nM |  | COc1ccc(C2(O)OC(=O)C(c3ccc4c(c3)OCO4)=C2Cc2cncc3ccccc23)cc1 (stereo not drawn) [Example 161, 3-Benzo[1,3]dioxol-5-yl-5-hydroxy-4-isoquinolin-4-ylmethyl-5-(4-methoxyphenyl)-5H-furan-2-one]
4 | 390 nM | 1900 nM |  | COc1ccc(C2(O)OC(=O)C(c3ccc4c(c3)OCO4)=C2Cc2ccc(-c3ccccc3)cc2)cc1 (stereo not drawn) [Example 162, 3-Benzo[1,3]dioxol-5-yl-4-biphenyl-4-ylmethyl-5-hydroxy-5-(4-methoxyphenyl) -5H-furan-2-one]
5 |  | > 2500 nM | 7200 nM | COc1ccc(C(=O)/C(Cc2ccc(OC)c(C)c2)=C(\C(=O)O)c2ccc3c(c2)OCO3)cc1 [Example 172, 2-Butenoic acid, 2-(1,3-benzodioxol-5-yl)-3-[(4-methoxy-3-methylphenyl)methyl]-4-(4-methoxyphenyl)-4-oxo-, (Z)-, ion(1-) compd. with 2-hydroxy-N,N,N-trimethylethanaminium (1:1)]
6 | 1050 nM | 10000 nM |  | CC(C)Oc1ccc(C2(O)OC(=O)C(c3ccc4c(c3)OCO4)=C2Cc2ccccc2)cc1 (stereo not drawn) [Example 204, 3-Benzo[1,3]dioxol-5-yl-4-benzyl-5-hydroxy-5-(4-isopropoxyphenyl)-5H-furan-2-one]
7 | 1200 nM | 5400 nM |  | O=C1OC(O)(c2ccc(OCc3ccccc3)cc2)C(Cc2ccccc2)=C1c1ccc2c(c1)OCO2 (stereo not drawn) [Example 208, 3-Benzo[1,3]dioxol-5-yl-4-benzyl-5-(4-benzyloxyphenyl)-5-hydroxy-5H-furan-2-one]
8 | 670 nM | > 2500 nM |  | O=C1OC(O)(c2cccc(Cl)c2)C(Cc2ccccc2)=C1c1ccc2c(c1)OCO2 (stereo not drawn) [Example 235, 3-Benzo[1,3]dioxol-5-yl-4-benzyl-5-(3-chlorophenyl)-5-hydroxy-5H-furan-2-one]
9 | 110 nM | 2000 nM |  | O=C1OC(O)(c2ccc3c(c2)OCO3)C(Cc2ccccc2)=C1c1ccc2c(c1)OCO2 (stereo not drawn) [Example 245, 3,5-Bis-benzo[1,3]dioxol-5-yl-4-benzyl-5-hydroxy-5H-furan-2-one]
10 | 6 nM | > 2500 nM |  | COc1ccc(C2(O)OC(=O)C(c3ccc4c(c3)OCO4)=C2Cc2cc(C)c(OC)cc2C)cc1 (stereo not drawn) [Example 251, 3-Benzo[1,3]dioxol-5-yl-5-hydroxy-4-(4-methoxy-2,5-dimethylbenzyl)-5-(4-methoxyphenyl)-5H-furan-2-one]
11 | 8.3 nM | 1400 nM |  | C=CCOc1cc(CC2=C(c3ccc4c(c3)OCO4)C(=O)OC2(O)c2ccc(OC)cc2OC)ccc1OC (stereo not drawn) [Example 255, 4-(3-Allyloxy-4-methoxybenzyl)-3-benzo[1,3]dioxol-5-yl-5-(2,4-dimethoxyphenyl)-5-hydroxy-5H-furan-2-one]
12 | 160 nM | 3900 nM |  | COc1ccc(C2(O)OC(=O)C(c3ccc(OC)c(OC)c3)=C2Cc2ccccc2)cc1 (stereo not drawn) [Example 261, 4-Benzyl-3-(3,4-dimethoxyphenyl)-5-hydroxy-5-(4-methoxyphenyl)-5H-furan-2-one]
13 | 710 nM | > 2500 nM |  | COc1ccc(C2(O)OC(=O)C(c3cc(OC)cc(OC)c3)=C2Cc2cccc(C(=O)O)c2)cc1 (stereo not drawn) [Example 267, 3-[4-(3,5-Dimethoxyphenyl)-2-hydroxy-2-(4-methoxyphenyl)-5-oxo-2,5-dihydrof uran-3-ylmethyl]benzoic acid]
14 | 6.4 nM | 760 nM |  | COc1ccc(C2(O)OC(=O)C(c3cc(OC)cc(OC)c3)=C2Cc2ccc(OC)c(C)c2)cc1 (stereo not drawn) [Example 272]
15 |  | > 2500 nM | 140 nM | COc1ccc(C2(O)OC(=O)C(c3cc(OC)cc(OC)c3)=C2Cc2ccc(Cl)cc2)cc1 (stereo not drawn) [Example 274]
16 | 4.6 nM | 6000 nM |  | COC(=O)c1cccc(CC2=C(c3ccc4c(c3)OCO4)C(=O)OC2(O)c2ccc(OC)cc2)c1 (stereo not drawn) [Example 286, Benzoic acid, 3-[[4-(1,3-benzodioxol-5-yl)-2,5-dihydro-2-hydroxy-2-(4-methoxyphenyl)-5-oxo-3-furanyl]methyl]-, methyl ester]
17 | 40 nM | 1400 nM |  | COC(=O)Cc1ccc(CC2=C(c3ccc4c(c3)OCO4)C(=O)OC2(O)c2ccc(OC)cc2)cc1 (stereo not drawn) [Example 291, {4-[4-Benzo[1,3]dioxol-5-yl-2-hydroxy-2-(4-methoxyphenyl)-5-oxo-2,5-dihydro-furan-3-ylmethyl]-phenyl}-acetic acid methyl ester]
18 | > 2500 nM | > 2500 nM |  | COc1ccc(C2(O)OC(=O)C(c3ccc4c(c3)OCO4)=C2Cc2ccc(CC(=O)O)cc2)cc1 (stereo not drawn) [Example 293, {4-[4-Benzo[1,3]dioxol-5-yl-2-hydroxyl-2-(4-methoxy-phenyl)-5-oxo-2,5-dihydro-furan-3-ylmethyl]-phenyl}-acetic acid]
19 | 3.4 nM | 780 nM |  | COC(=O)Cc1cccc(CC2=C(c3ccc4c(c3)OCO4)C(=O)OC2(O)c2ccc(OC)cc2)c1 (stereo not drawn) [Example 294, {3-[4-Benzo[1,3]dioxol-5-yl-2-hydroxy-2-(4-methoxyphenyl)-5-oxo-2,5-dihydro-furan-3-ylmethyl]-phenyl}-acetic acid methyl ester]
20 | 130 nM | > 2500 nM |  | COc1ccc(C2(O)OC(=O)C(c3ccc4c(c3)OCO4)=C2Cc2cccc(CC(=O)O)c2)cc1 (stereo not drawn) [Example 295, {3-[4-Benzo[1,3]dioxol-5-yl-2-hydroxy-2-(4-methoxyphenyl)-5-oxo-2,5-dihydro-furan-3-ylmethyl]-phenyl}-acetic acid]
21 | 6 nM | 580 nM |  | COc1ccc(C2(O)OC(=O)C(c3ccc4c(c3)OCO4)=C2Cc2cc(C)c(OC)c(C)c2)cc1 (stereo not drawn) [Example 296, 3-Benzo[1,3]dioxol-5-yl-5-hydroxy-4-(4-methoxy-3,5-dimethyl-benzyl)-5-(4-methoxy-phenyl)-5-H-furan-2-one]
22 | 64 nM | 870 nM |  | COc1ccc(C2(O)OC(=O)C(c3ccc4c(c3)OCO4)=C2Cc2cc(C)c(OC(C)C)c(C)c2)cc1 (stereo not drawn) [Example 297, 3-Benzo[1,3]dioxol-5-yl-4-(3,5-dimethyl-4-isopropoxybenzyl)-5-hydroxy-5-(4-methoxy-phenyl)-5H-furan-2-one]
23 | 2300 nM | 2000 nM |  | CCCCCCCCOc1c(C)cc(CC2=C(c3ccc4c(c3)OCO4)C(=O)OC2(O)c2ccc(OC)cc2)cc1C (stereo not drawn) [Example 302, 3-Benzo[1,3]dioxol-5-yl-4-(3,5-dimethyl-4-octyloxybenzyl)-5-hydroxy-5-(4-methoxy-phenyl)-5H-furan-2-one]
24 | 2.7 nM | 760 nM |  | COc1ccc(C2(O)OC(=O)C(c3ccc4c(c3)OCO4)=C2Cc2cc(OC)cc(OC)c2)cc1 (stereo not drawn) [Example 303, 3-Benzo[1,3]dioxol-5-yl-4-(3,5-dimethoxy-benzyl)-5-hydroxy-5-(4-methoxy-phenyl)-5H-furan-2-one]
25 | 4.8 nM | 950 nM |  | COc1ccc(C2(O)OC(=O)C(c3ccc4c(c3)OCO4)=C2Cc2ccc(OC)c(OC)c2)cc1 (stereo not drawn) [Example 304, 3-Benzo[1,3]dioxol-5-yl-4-(3,4-dimethoxy-benzyl)-5-hydroxy-5-(4-methoxy-phenyl)-5H-furan-2-one]
26 | 2 nM | 850 nM |  | COc1ccc(C2(O)OC(=O)C(c3ccc4c(c3)OCO4)=C2Cc2cc(OC)c(OC)cc2OC)cc1 (stereo not drawn) [Example 306, 3Benzo[1,3]dioxol-5-yl-5-hydroxy-5-(4-methoxy-phenyl)-4-(2,4,5-trimethoxy-benzyl)-5H-furan-2-one]
27 | 5.9 nM | 1000 nM |  | COc1ccc(C2(O)OC(=O)C(c3ccc4c(c3)OCO4)=C2Cc2cc(OC)ccc2OC)cc1 (stereo not drawn) [Example 307, 3-Benzo[1,3]dioxol-5-yl-4-(2,5-dimethoxy-benzyl)-5-hydroxy-5-(4-methoxy-phenyl)-5H-furan-2-one]
